# Assay results from patent US20250084095A1, “Aminopyrimidine Derivatives as Cyclin-Dependent Kinase Inhibitors” (Accutar Biotechnology Inc., priority 2023, published 2025).
# Assays:
# [1] = tested on: Phospho-Rb (Ser807/811) in MCF7 cells; test: Phospho-Rb expression inhibition in MCF7 cells quantified by in cell Western; format: cell-based, human; conditions: Homo sapiens, MCF7, 24 h, 24 hours, in cell Western, read-out: MCF7 pRb IC50
# Method: MCF7 cells were obtained from American Type Culture Collection (ATCC, HTB-22). MCF7 cells were plated in 96-well plates (VWR #10062-900, or Coming #3904) in 90 μL culture medium at a density of 20,000 cells/well in the DMEM growth medium containing 10%/FBS and 1% Penicillin Streptomycin, and then incubated at 37° C. overnight. The following day, the test compound was administered to the cells by using 1000× compound stock solution prepared in DMSO at various concentrations. 1000× compound stock solution was first diluted in culturing medium to 10×, then 10 μL compound medium was added to each well in the cell plates. After administration of the compound, the cells were then incubated at 37° C. for 24 h. Upon completion, the cells were washed with PBS briefly. 150 μL/well of 4% formaldehyde was added and the plates were incubated at room temperature for 20 min. The cells were washed with PBS briefly, and permeabilized with 150 µL/well of ice cold 100% methanol for 10 min. The cells were washed with PBS briefly and blocked with 100 µL/well LI-COR blocking buffer for 1 h at room temperature with gentle shaking. The cells were incubated overnight at 4° C. with 50 μL primary antibody rabbit anti-Phospho-Rb (Ser807/811) (1: 500, Cell Signaling, #8516) and anti-Rb (1:200, Santa Cruz, sc-73598) diluted in Intercept Blocking Buffer (LI-COR, #927-60001) containing 0.1% Tween 20. The next day, the cells were washed with 200 μL PBS containing 0.1% Tween 20, 5×5 mins at room temperature with gentle shaking, and incubated with 50 μL secondary antibody, IRDye® 800CW Goat anti-Rabbit IgG (1:1000, LI-COR, #926-32211) and FRDye® 680RD Goat anti-Mouse IgG (1:1000, LI-COR, #926-68070), in LI-COR […] blocking buffer with 0.2% Tween 20 for 1 h at room temperature with gentle shaking. The cells were washed with 200 μL PBS containing 0.1% Tween 20, 5×5 min at room temperature with gentle shaking. The cells were washed with PBS for 5 mins. 100 μL fresh PBS was added to each well and the plates were imaged on a LI-COR Odyssey CLX plate reader.
# MCF7 cells were obtained from American Type Culture Collection (ATCC, HTB-22). SW1573-CDK6 KO and SW1573-CDK4 KO cells were generated by the CRISPR-Cas9 technology. All cells were plated in 96-well plates (VWR #10062-900, or Corning #3904) in 90 uL culture medium at a density of 20,000 cells/well in the respective growth medium containing 10% FBS and 1% Penicillin Streptomycin, and then incubated at 37° C. overnight. The following day, the test compound was administered to the cells by using 1000× compound stock solution prepared in DMSO at various concentrations. 1000× compound stock solution was first diluted in culturing medium to 10×, then 10 uL compound medium was added to each well in the cell plates. After administration of the compound, the cells were then incubated at 37° C. for 24 hours. Upon completion, the cells were washed with PBS briefly. 150 uL/well of 4% formaldehyde was added and the plates were incubated at room temperature for 20 mins. The cells were washed with PBS briefly, and permeabilized with 150 uL/well of ice cold 100% methanol for 10 mins. The cells were washed with PBS briefly and blocked with 100 uL/well LI-COR blocking buffer for 1 hr at room temperature with gentle shaking. The cells were incubated overnight at 4° C. with 50 uL primary antibody rabbit anti-Phospho-Rb (Ser807/811) (1: 500, Cell Signaling, #8516) and anti-Rb (1:200, Santa Cruz, sc-73598) diluted in Intercept Blocking Buffer (LI-COR, #927-60001) containing 0.1% Tween 20. The next day, the cells were washed with 200 uL PBS containing 0.1% Tween 20, 5×5 mins at room temperature with gentle shaking, and incubated with 50 uL secondary antibody, IRDye® 800CW Goat anti-Rabbit IgG (1:1000, LI-COR, #926-32211) and IRDye®680RD Goat anti-Mouse IgG (1:1000, LI-COR, #926-68070), in LI-COR blocking buffer with 0.2% Tween 20 for 1 hr at room temperature with gentle shaking. […]
# 22RV1 cells = test: Cell growth inhibition of 22RV1 cells (CellTiter-Glo); format: cell-based; conditions: Homo sapiens, 22Rv1, 120 h, 5 days, CellTiter-Glo, read-out: 22RV1 Cell Growh GI50
# Method: For cell growth assay, 22RV1 (ATCC, CRL-2505) cells were seeded in 96-well plates at 1000 cells/well in 90 μl of RPMI1640 growth medium containing 20% FBS and 1% Penicillin Streptomycin, and then incubated at 37° C. overnight. The following day, the test compound was administered to the cells by using 1000× compound stock solution prepared in DMSO at various concentrations. 1000× compound stock solution was first diluted in culturing medium to 10×, then 10 uL compound medium was added to each well in the cell plates. After administration of the compound, the cells were then incubated at 37° C. for 5 days. Upon completion, the plates were equilibrated at room temperature for approximately 10 min. 100 μl of CellTiter-Glo® Reagent (Promega) was added to each well. The plates were then incubated at room temperature for 10 min and luminescence was recorded by EnSpire plate reader (PerkinElmer).
# 22RV1 cells were obtained from American Type Culture Collection (ATCC, CRL-2505). 22RV1 cells were seeded in 96-well plates at 1000 cells/well in 90 μL of RPMI1640 growth medium containing 10% FBS and 1% Penicillin Streptomycin, and then incubated at 37° C. overnight. The following day, the test compound was administered to the cells by using 1000× compound stock solution prepared in DMSO at various concentrations. […], then 10 uL compound medium was added to each well in the cell plates. After administration of the compound, the cells were then incubated at […] for 5 days. Upon completion, the plates were equilibrated at room temperature for approximately 10 minutes. 100 μL of CellTiter-Glo® Reagent (Promega) was added to each well. The plates were then incubated at room temperature for 10 minutes and luminescence was recorded by EnSpire plate reader (PerkinElmer).
SMILES,IC50 [1],GI50 (22RV1 cells)
"Cc1c(-c2nc(N[C@@H]3C[C@H]4CO[C@H](O4)[C@H]3O)ncc2F)sc2c(C(C)C)cn(C)c(=O)c12 [Compound 189, 2-(5-fluoro-2-(((1S,3R,4S,5R)-4-hydroxy-6,8-dioxabicyclo[3.2.1]octan-3-yl)amino)pyrimidin-4-yl)-7-isopropyl-3,5-dimethylthieno[3,2-c]pyridin-4(5H)-one]",≤ 40 nM,≤ 120 nM
"Cc1c(C)n(C(C)C)c2cc(-c3nc(N[C@@H]4C[C@H]5CO[C@H](O5)[C@H]4O)ncc3F)ccc2c1=O [Compound 190, 7-(5-fluoro-2-(((1S,3R,4S,5R)-4-hydroxy-6,8-dioxabicyclo[3.2.1]octan-3-yl)amino)pyrimidin-4-yl)-1-isopropyl-2,3-dimethylquinolin-4(1H)-one]",40 to 150 nM,120 to 450 nM
"Cc1c(C(F)F)c(=O)c2ccc(-c3nc(N[C@@H]4C[C@H]5CO[C@H](O5)[C@H]4O)ncc3F)cc2n1C(C)C [Compound 192, 3-(difluoromethyl)-7-(5-fluoro-2-(((1S,3R,4S,5R)-4-hydroxy-6,8-dioxabicyclo[3.2.1]octan-3-yl)amino)pyrimidin-4-yl)-1-isopropyl-2-methylquinolin-4(1H)-one]",150 to 1000 nM,120 to 450 nM
"Cc1c(CN)n(C(C)C)c2cc(-c3nc(N[C@@H]4C[C@H]5CO[C@H](O5)[C@H]4O)ncc3F)ccc2c1=O [Compound 193, 2-(aminomethyl)-7-(5-fluoro-2-(((1S,3R,4S,5R)-4-hydroxy-6,8-dioxabicyclo[3.2.1]octan-3-yl)amino)pyrimidin-4-yl)-1-isopropyl-3-methylquinolin-4(1H)-one]",150 to 1000 nM,120 to 450 nM
"Cc1c(CN2CC(O)C2)n(C(C)C)c2cc(-c3nc(N[C@@H]4C[C@H]5CO[C@H](O5)[C@H]4O)ncc3F)ccc2c1=O [Compound 198, 7-(5-fluoro-2-(((1S,3R,4S,5R)-4-hydroxy-6,8-dioxabicyclo[3.2.1]octan-3-yl)amino)pyrimidin-4-yl)-2-((3-hydroxyazetidin-1-yl)methyl)-1-isopropyl-3-methylquinolin-4(1H)-one]",150 to 1000 nM,450 to 3000 nM
"CC(C)n1c(CN2[C@@H](C)COC[C@@H]2C)c(F)c(=O)c2ccc(-c3nc(N[C@@H]4C[C@H]5CO[C@H](O5)[C@H]4O)ncc3F)cc21 [Compound 200, 2-(((3S,5S)-3,5-dimethylmorpholino)methyl)-3-fluoro-7-(5-fluoro-2-(((1S,3R,4S,5R)-4-hydroxy-6,8-dioxabicyclo[3.2.1]octan-3-yl)amino)pyrimidin-4-yl)-1-isopropylquinolin-4(1H)-one]",40 to 150 nM,120 to 450 nM

# Now from value to compound:
IC50 [1],GI50 (22RV1 cells),SMILES
150 to 1000 nM,120 to 450 nM,"Cc1nc2c(F)cc(-c3nc(N[C@@H]4C[C@H]5CO[C@H](O5)[C@H]4O)ncc3Cl)cc2n1[C@@H]1CCC[C@@]1(C)O [Compound 182, (1S,3R,4S,5R)-3-((5-chloro-4-(4-fluoro-1-((1R,2R)-2-hydroxy-2-methylcyclopentyl)-2-methyl-1H-benzo[d]imidazol-6-yl)pyrimidin-2-yl)amino)-6,8-dioxabicyclo[3.2.1]octan-4-ol]"
> 1000 nM,> 3000 nM,"CN(C)C(=O)c1cc2c(F)cc(-c3nc(N[C@@H]4C[C@H]5CO[C@H](O5)[C@H]4O)ncc3Cl)cc2n1C1CCCC1 [Compound 183, 6-(5-chloro-2-(((1S,3R,4S,5R)-4-hydroxy-6,8-dioxabicyclo[3.2.1]octan-3-yl)amino)pyrimidin-4-yl)-1-cyclopentyl-4-fluoro-N,N-dimethyl-1H-indole-2-carboxamide]"
150 to 1000 nM,120 to 450 nM,"CC(C)n1c([C@@H]2COC(=O)N2)nc2c(F)cc(-c3nc(N[C@@H]4C[C@H]5CO[C@H](O5)[C@H]4O)ncc3Cl)cc21 [Compound 184, (R)-4-(6-(5-chloro-2-(((1S,3R,4S,5R)-4-hydroxy-6,8-dioxabicyclo[3.2.1]octan-3-yl)amino)pyrimidin-4-yl)-4-fluoro-1-isopropyl-1H-benzo[d]imidazol-2-yl)oxazolidin-2-one]"
150 to 1000 nM,450 to 3000 nM,"CC(C)n1c([C@@H]2COC(=O)N2C)nc2c(F)cc(-c3nc(N[C@@H]4C[C@H]5CO[C@H](O5)[C@H]4O)ncc3Cl)cc21 [Compound 185, (R)-4-(6-(5-chloro-2-(((1S,3R,4S,5R)-4-hydroxy-6,8-dioxabicyclo[3.2.1]octan-3-yl)amino)pyrimidin-4-yl)-4-fluoro-1-isopropyl-1H-benzo[d]imidazol-2-yl)-3-methyloxazolidin-2-one]"
150 to 1000 nM,120 to 450 nM,"CC(C)n1c(-c2cn[nH]c2)nc2c(F)cc(-c3nc(N[C@@H]4C[C@H]5CO[C@H](O5)[C@H]4O)ncc3Cl)cc21 [Compound 186, (1S,3R,4S,5R)-3-((5-chloro-4-(4-fluoro-1-isopropyl-2-(1H-pyrazol-4-yl)-1H-benzo[d]imidazol-6-yl)pyrimidin-2-yl)amino)-6,8-dioxabicyclo[3.2.1]octan-4-ol]"
150 to 1000 nM,120 to 450 nM,"CC(C)n1c(-c2cnn(C)c2)nc2c(F)cc(-c3nc(N[C@@H]4C[C@H]5CO[C@H](O5)[C@H]4O)ncc3Cl)cc21 [Compound 187, (1S,3R,4S,5R)-3-((5-chloro-4-(4-fluoro-1-isopropyl-2-(1-methyl-1H-pyrazol-4-yl)-1H-benzo[d]imidazol-6-yl)pyrimidin-2-yl)amino)-6,8-dioxabicyclo[3.2.1]octan-4-ol]"
150 to 1000 nM,120 to 450 nM,"CC(C)c1cn(C)c(=O)c2c(F)cc(-c3nc(N[C@@H]4C[C@H]5CO[C@H](O5)[C@H]4O)ncc3Cl)cc12 [Compound 188, 6-(5-chloro-2-(((1S,3R,4S,5R)-4-hydroxy-6,8-dioxabicyclo[3.2.1]octan-3-yl)amino)pyrimidin-4-yl)-8-fluoro-4-isopropyl-2-methylisoquinolin-1(2H)-one]"
